Assay results published in ChEMBL document CHEMBL1795329, “QSPR modeling of octanol/water partition coefficient for vitamins by optimal descriptors calculated with SMILES” (Eur J Med Chem, 2008).

Assay: not given
Settings: octanol/water

Row | Compound | logP
1 | C=C1CC[C@H](O)C/C1=C/C=C1\CCC[C@]2(C)[C@@H]([C@H](C)CCCC(C)C)CC[C@@H]12 [CHOLECALCIFEROL] | 10.24
2 | CC1=C(C/C=C(\C)CCC[C@H](C)CCC[C@H](C)CCCC(C)C)C(=O)c2ccccc2C1=O [PHYTONADIONE] | 11.71
3 | C=C1CC[C@H](O)C/C1=C/C=C1\CCC[C@]2(C)[C@@H]([C@H](C)/C=C/[C@H](C)C(C)C)CC[C@@H]12 [ERGOCALCIFEROL] | 10.44
4 | C[C@@H]1O[C@@H](OC[C@H]2O[C@@H](Oc3c(-c4ccc(O)c(O)c4)oc4cc(O)cc(O)c4c3=O)[C@H](O)[C@@H](O)[C@@H]2O)[C@H](O)[C@H](O)[C@H]1O [RUTIN] | -2.02
5 | ClC(Cl)C(Cl)(Cl)Cl [PENTACHLOROETHANE] | 3.627

Assay: physchem
Settings: octanol/water

Row | Compound | logP
6 | BrCCBr [1,2-DIBROMOETHANE] | 1.74
7 | NC1=C2NCN=C2N=CN1 [VITAMIN B4] | -0.09
8 | c1cc2cccc3c4cccc5cccc(c(c1)c23)c54 | 6.12
9 | Cc1cccc(C)c1C | 4.09
10 | CCCCCCC [HEPTANE] | 4.4
11 | c1cc2ccc3cccc4ccc(c1)c2c34 [PYRENE] | 4.95
12 | CCCCC [PENTANE] | 3.34
13 | CC(=O)Oc1cc(C)c(OC(C)=O)c2ccccc12 [ACETOMENAPHTHONE] | 3.59
14 | Cc1cccc2ccccc12 | 3.96
15 | c1ccc2c(c1)Cc1cc3ccccc3cc1-2 [BENZO[B]FLUORENE] | 5.4
16 | CCCCCCCCl | 4.11
17 | CC(C)CC(C)(C)C | 4.54
18 | Cc1ccc2cc3ccccc3cc2c1 | 5.14
19 | Clc1ccccc1Cl [1,2-DICHLOROBENZENE] | 3.57
20 | CCCCl | 1.99
21 | Clc1ccccc1 [CHLOROBENZENE] | 2.85
22 | Clc1cccc(Cl)c1Cl | 4.28
23 | O=C(O)CCCC[C@@H]1SC[C@@H]2NC(=O)N[C@@H]21 [BIOTIN] | 0.39
24 | c1ccc(-c2ccccc2)cc1 [BIPHENYL] | 4.03
25 | Clc1cc(Cl)c(Cl)cc1Cl | 4.74
26 | CCCCCCCCCC [DECANE] | 5.98
27 | CC(C)(C)c1ccccc1 [tert-Butylbenzene] | 4.12
28 | Cc1cccc(C)c1 [M-XYLENE] | 3.44
29 | Clc1cccc2ccccc12 | 4.03

Row | Compound | logP
30 | Cc1cccc(Cl)c1 | 3.5
31 | Clc1ccc(-c2ccccc2Cl)cc1 | 5.46
32 | CCCCCCCCCCC | 6.51
33 | C=CCCC | 2.79
34 | CCCl [ETHYL CHLORIDE] | 1.47
35 | Cc1ccc(C(C)C)cc1 [P-CYMENE] | 4.37
36 | Cc1cc(C)c(C)cc1C | 4.74
37 | Cc1c2ccccc2c(C)c2ccccc12 | 5.79
38 | Clc1ccc(Cl)c(-c2ccccc2)c1 | 5.46
39 | c1ccc2cc3c(cc2c1)-c1cccc2cccc-3c12 [BENZO(K)FLUORANTHENE] | 6.12
40 | c1ccc2c(c1)ccc1ccccc12 | 4.49
41 | Cc1ccc(C)c(C)c1 | 4.09
42 | c1cc2ccc3ccc4ccc5cccc6c(c1)c2c3c4c56 | 6.58
43 | C1CCCCCCC1 [CYCLOOCTANE] | 4.47
44 | Clc1ccc2ccccc2c1 | 4.03
45 | CCCC(C)C | 3.74
46 | CC(Cl)(Cl)Cl [TRICHLOROETHANE] | 2.48
47 | C1CCCCC1 [CYCLOHEXANE] | 3.35
48 | Cc1c(C)c2c3ccccc3ccc2c2ccccc12 | 6.96
49 | Cc1ccc2c3ccccc3c3cccc4ccc1c2c43 | 6.77
50 | Cl/C=C/Cl | 1.51
51 | Cc1c2ccccc2cc2c1ccc1ccccc12 | 6.31
52 | c1ccc2c(c1)ccc1cc3ccc4ccccc4c3cc12 | 6.84
53 | CC(C)CCC[C@@H](C)[C@H]1CC[C@H]2C3=CC=C4C[C@@H](O)CC[C@]4(C)[C@H]3CC[C@]12C | 8.65

Row | Compound | logP
54 | c1ccc(CCc2ccccc2)cc1 | 4.89
55 | CCCC [BUTANE] | 2.81
56 | C1=CCCCC1 [CYCLOHEXENE] | 2.81
57 | CCCc1ccccc1 | 3.85
58 | Clc1cc(-c2ccccc2)c(Cl)c(Cl)c1Cl | 6.88
59 | C[S+](C)CC[C@H](N)C(=O)O [METHYLMETHIONINE SULFONIUM CHLORIDE] | 0.28
60 | c1ccc2c(c1)c1ccccc1c1ccccc21 | 5.66
61 | ClCCCl [1,2-DICHLOROETHANE] | 1.46
62 | c1ccc2c(c1)ccc1c3ccccc3ccc21 | 5.66
63 | c1ccc2c(c1)Cc1c-2ccc2ccccc12 [BENZO(A)FLUORENE] | 5.4
64 | Cc1cccc2c(C)cccc12 | 4.61
65 | Cc1c2ccccc2cc2ccccc12 | 5.14
66 | Cc1cccc2c1Cc1ccccc1-2 | 4.87
67 | Clc1cc(Cl)c(Cl)c(Cl)c1 | 4.99
68 | Brc1ccc(Br)cc1 | 3.87
69 | Cc1ccc(C)c2c(C)cccc12 | 5.26
70 | CCCCC(C)C | 4.27
71 | CCCCCl [BUTYL CHLORIDE] | 2.52
72 | Clc1ccc(Cl)cc1 [1,4-DICHLOROBENZENE] | 3.57
73 | CCCCCCCl | 3.58
74 | c1ccc2ccccc2c1 | 3.32
75 | CCCCCCCC [OCTANE] | 4.93
76 | Cc1ccc2ccccc2c1 | 3.96
77 | CC(C)(CO)[C@@H](O)C(=O)NCCC(=O)O [PANTOTHENIC ACID] | -1.69

Row | Compound | logP
78 | c1ccc2c(c1)c1cccc3ccc4cccc2c4c31 [BENZO[E]PYRENE] | 6.12
79 | Clc1cccc(Cl)c1-c1ccccc1 | 5.46
80 | Clc1cc(Cl)c(-c2ccccc2)c(Cl)c1 | 6.17
81 | c1ccc2c(c1)ccc1cc3c(ccc4ccccc43)cc12 | 6.84
82 | CCSCC [DIETHYL SULFIDE] | 1.9
83 | Cc1ccc(C)c(C)c1C | 4.74
84 | Cc1ccc2cc(C)ccc2c1 | 4.61
85 | FC(Cl)(Cl)Cl [TRICHLOROMONOFLUOROMETHANE] | 2.44
86 | Clc1cccc(Cl)c1 | 3.57
87 | CCc1c2ccccc2cc2c1ccc1ccccc12 | 6.84
88 | C1=CCCC1 [CYCLOPENTENE] | 2.25
89 | Cc1ccc2c(ccc3ccccc32)c1 | 5.14
90 | Cc1ccccc1C [O-XYLENE] | 3.44
91 | CCC(C)C | 3.21
92 | Clc1ccc(Cl)c(Cl)c1 | 4.28
93 | c1ccc2cc3cc4ccccc4cc3cc2c1 | 5.66
94 | Clc1cc(Cl)c(-c2ccccc2)cc1Cl | 6.17
95 | c1ccc2c3c(ccc2c1)-c1cccc2cccc-3c12 [BENZO(J)FLUORANTHENE] | 6.12
96 | c1ccc2c(c1)-c1cccc3cccc-2c13 [FLUORANTHENE] | 4.95
97 | CCc1cccc2ccccc12 | 4.49
98 | ClC(Cl)=C(Cl)Cl [TETRACHLOROETHYLENE] | 3.02
99 | CCCCCCl | 3.05
100 | Cc1ccc(C)cc1 [P-XYLENE] | 3.44
101 | Cc1cc(C)cc(C)c1 | 4.09

Row | Compound | logP
102 | CCC(C)(C)c1ccccc1 [tert-Amylbenzene] | 4.65
103 | Brc1ccccc1Br | 3.59
104 | c1ccc2c(c1)-c1cccc3c1c-2cc1ccccc13 [BENZO[B]FLUORANTHENE] | 6.12
105 | CSC | 0.842
106 | Clc1cc(Cl)c(-c2ccccc2Cl)cc1Cl | 6.88
107 | Clc1cc(Cl)c(Cl)c(Cl)c1Cl [PENTACHLOROBENZENE] | 5.71
108 | c1ccc2c(c1)cc1ccc3cccc4ccc2c1c34 | 6.12
109 | ClC(Cl)C(Cl)Cl [1,1,2,2-TETRACHLOROETHANE] | 2.64
110 | CCc1ccccc1 [ETHYLBENZENE] | 3.32
111 | Cc1ncc(C[n+]2csc(CCO)c2C)c(N)n1 [THIAMINE ION] | -3.93
112 | Cc1ccc(Cl)cc1 | 3.5
113 | CCCCc1ccccc1 [BUTYLBENZYL] | 4.74
114 | Cc1cc(O)c2ccccc2c1O [VITAMIN K3H2] | 2.76
115 | Nc1ncnc2c1ncn2[C@@H]1O[C@H](COP(=O)(O)O)[C@@H](O)[C@H]1O [ADENOSINE PHOSPHATE] | -1.68
116 | Clc1c(Cl)c(Cl)c(Cl)c(Cl)c1Cl [PERCHLOROBENZENE] | 6.42
117 | c1ccc2c(c1)Cc1ccccc1-2 [FLUORENE] | 4.22
118 | Cc1c(C)c(C)c(C)c(C)c1C [HEXAMETHYLBENZENE] | 6.04
119 | Cc1cccc2ccc3cc4ccccc4cc3c12 | 6.31
120 | Cc1cc2c3ccccc3ccc2c2ccccc12 | 6.31
121 | Cc1cc2ccccc2cc1C | 4.61
122 | ClC=C(Cl)Cl [TRICHLOROETHYLENE] | 2.27
123 | CCCCCCCCC [NONANE] | 5.46
124 | Cc1cc(C)c(C)c(C)c1C | 5.39
125 | CCCCCC [HEXANE] | 3.87

Row | Compound | logP
126 | C1C2CC3CC1CC(C2)C3 | 3.98
127 | Cc1c2ccccc2cc2ccc3ccccc3c12 | 6.31
128 | Cc1ccc(C)c2ccccc12 | 4.61
129 | C=CCC | 2.27
130 | ClC(Cl)(Cl)Cl [CARBON TETRACHLORIDE] | 2.88
131 | CC1=C(/C=C/C(C)=C/C=C/C(C)=C/CO)C(C)(C)CC=C1 [VITAMIN A2] | 7.41
132 | Clc1ccc2c(ccc3ccccc32)c1 | 5.2
133 | Clc1cc(Cl)cc(Cl)c1 [1,3,5-TRICHLOROBENZENE] | 4.28
134 | CC(C)c1ccccc1 [ISOPROPYLBENZENE] | 3.72
135 | Cc1cc2ccccc2c2ccc3ccccc3c12 | 6.31
136 | C1CCCCCC1 [CYCLOHEPTANE] | 3.91
137 | c1cc2c3c(cccc3c1)CC2 | 4.07
138 | Cc1ccccc1Cl | 3.5
139 | Clc1ccc(-c2ccccc2Cl)c(Cl)c1 | 6.17
140 | c1cc2c3c(c4ccc5ccccc5c4cc3c1)CC2 [CHOLANTHRENE] | 6.42
141 | c1ccc2cc3c(ccc4ccccc43)cc2c1 | 5.66
142 | Cc1cc(C)c(C)c(C)c1 | 4.74
143 | C1CCCC1 [CYCLOPENTANE] | 2.79
144 | Clc1ccccc1-c1ccccc1 | 4.74
145 | Nc1nc2ncc(CNc3ccc(C(=O)N[C@@H](CCC(=O)O)C(=O)O)cc3)nc2c(=O)[nH]1 [FOLIC ACID] | -2.81
